From patent publication US12157746B2, “Tetrahydro-1H-pyrazino[2,1-a]isoindolylquinoline compounds for the treatment of autoimmune disease” (F. HOFFMANN-LA ROCHE AG, priority 2018, dated 2024)

What follows are compounds tested against T1, human TLR7 (Homo sapiens, UniProt Q9NYK1) (assay: HEK293-Blue-hTLR-7 cells assay). Conditions: HEK293-Blue-hTLR7 cells, R848 stimulation, 20 hrs, SEAP reporter; read-out: HEK/hTLR7 IC50.
T1 sequence (Q9NYK1 27-1049): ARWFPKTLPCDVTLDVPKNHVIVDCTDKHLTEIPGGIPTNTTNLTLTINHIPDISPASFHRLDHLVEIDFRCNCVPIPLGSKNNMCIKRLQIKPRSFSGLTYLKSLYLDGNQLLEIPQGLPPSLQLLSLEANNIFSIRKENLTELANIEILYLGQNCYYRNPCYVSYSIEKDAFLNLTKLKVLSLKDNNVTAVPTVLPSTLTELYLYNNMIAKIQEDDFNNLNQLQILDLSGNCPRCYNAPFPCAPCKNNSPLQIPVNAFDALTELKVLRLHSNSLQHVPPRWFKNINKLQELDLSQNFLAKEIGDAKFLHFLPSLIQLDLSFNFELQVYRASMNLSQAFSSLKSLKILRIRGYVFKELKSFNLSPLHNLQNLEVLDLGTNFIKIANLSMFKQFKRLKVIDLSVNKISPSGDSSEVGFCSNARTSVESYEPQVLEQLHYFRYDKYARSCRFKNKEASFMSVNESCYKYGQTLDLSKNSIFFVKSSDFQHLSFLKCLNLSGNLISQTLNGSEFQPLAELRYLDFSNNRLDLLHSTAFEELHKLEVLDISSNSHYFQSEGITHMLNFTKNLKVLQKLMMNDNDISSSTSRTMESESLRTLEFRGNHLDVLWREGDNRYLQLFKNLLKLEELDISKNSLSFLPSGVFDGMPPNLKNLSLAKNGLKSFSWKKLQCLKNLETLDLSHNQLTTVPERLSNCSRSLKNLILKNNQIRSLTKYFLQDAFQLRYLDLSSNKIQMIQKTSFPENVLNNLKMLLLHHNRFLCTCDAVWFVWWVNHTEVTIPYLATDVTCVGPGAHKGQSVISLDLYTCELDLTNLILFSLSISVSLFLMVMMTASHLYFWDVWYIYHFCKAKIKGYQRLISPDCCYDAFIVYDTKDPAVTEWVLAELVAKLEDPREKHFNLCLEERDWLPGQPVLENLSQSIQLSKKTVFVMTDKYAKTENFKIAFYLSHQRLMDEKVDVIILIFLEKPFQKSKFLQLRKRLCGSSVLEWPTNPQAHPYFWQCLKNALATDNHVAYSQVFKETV
Format: cell-based
Source text: HEK293-Blue-hTLR-7 Cells Assay:
A stable HEK293-Blue-hTLR-7 cell line was purchased from InvivoGen (Cat. #: hkb-htlr7, San Diego, California, USA). These cells were originally designed for studying the stimulation of human TLR7 by monitoring the activation of NF-κB. A SEAP (secreted embryonic alkaline phosphatase) reporter gene was placed under the control of the IFN-β minimal promoter fused to five NF-κB and AP-1-binding sites. The SEAP was induced by activating NF-κB and AP-1 via stimulating HEK-Blue hTLR7 cells with TLR7 ligands. Therefore the reporter expression was declined by TLR7 antagonist under the stimulation of a ligand, such as R848 (Resiquimod), for incubation of 20 hrs. The cell culture supernatant SEAP reporter activity was determined using QUANTI-Blue™ kit (Cat. #: rep-qb1, Invivogen, San Diego, Ca. USA) at a wavelength of 640 nm, a detection medium that turns purple or blue in the presence of alkaline phosphatase.
HEK293-Blue-hTLR7 cells were incubated at a density of 250,000˜450,000 cells/mL in a volume of 170 μL in a 96-well plate in Dulbecco's Modified Eagle's medium (DMEM) containing 4.5 g/L glucose, 50 U/mL penicillin, […], […], 2 mM L-glutamine, 10% (v/v) heat-inactivated fetal bovine serum with addition of 20 μL test compound 1n a serial dilution in the presence of final DMSO at 1% and 10 μL of 20 uM R848 in above DMEM, perform incubation under 37° C. in a CO2 incubator for 20 hrs. Then 20 μL of the supernatant from each well was incubated with 180 μL Quanti-blue substrate solution at 37° C. for 2 hrs and the absorbance was read at 620-655 nm using a spectrophotometer. The signaling pathway that TLR7 activation leads to downstream NF-κB activation has been widely accepted, and therefore similar reporter assay was modified for evaluating TLR7 antagonist.

| SMILES | IC50 [nM] |
| --- | --- |
| C[C@@H]1CN(c2ccc(C#N)n3nccc23)C[C@@H]2c3ccc(N4CC5CNCC(C4)O5)cc3CN12 [Example 107, 4-[(4R,10bS)-4-methyl-8-(9-oxa-3,7-diazabicyclo[3.3.1]nonan-3-yl)-3,4,6,10b-tetrahydro-1H-pyrazino[2,1-a]isoindol-2-yl]pyrazolo[1,5-a]pyridine-7-carbonitrile] | 14.5 |
| CO[C@@H]1CN(c2ccc3c(c2)CN2[C@H](C)CN(c4ccc(C#N)n5ncc(F)c45)C[C@H]32)C[C@H]1N [Example 113, 4-[(4R,10bS)-8-[(3R,4R)-3-amino-4-methoxy-pyrrolidin-1-yl]-4-methyl-3,4,6,10b-tetrahydro-1H-pyrazino[2,1-a]isoindol-2-yl]-3-fluoro-pyrazolo[1,5-a]pyridine-7-carbonitrile] | 6 |
| [2H]c1ccc2c(N3C[C@@H](C)N4Cc5cc(N6CC7CNCC(C6)O7)ccc5[C@H]4C3)ccc(C#N)c2n1 [Example 93, 5-[(4R,10bS)-4-methyl-8-(9-oxa-3,7-diazabicyclo[3.3.1]nonan-3-yl)-3,4,6,10b-tetrahydro-1H-pyrazino[2,1-a]isoindol-2-yl]-2-deuterio-quinoline-8-carbonitrile] | 3.8 |
| CO[C@@H]1CN(c2ccc3c(c2)CN2[C@H](C)CN(c4ccc(C#N)n5nccc45)C[C@H]32)CC[C@@H]1N [Example 105, 4-[(4R,10bS)-8-[(3R,4S)-4-amino-3-methoxy-1-piperidyl]-4-methyl-3,4,6,10b-tetrahydro-1H-pyrazino[2,1-a]isoindol-2-yl]pyrazolo[1,5-a]pyridine-7-carbonitrile] | 4.9 |
| C[C@@H]1CN(c2ccc(C#N)c3ncccc23)C[C@@H]2c3ccc(N4CCNC[C@@](C)(O)C4)cc3CN12 [Example 55B, 5-[(4R,10bS)-8-[(6R)-6-hydroxy-6-methyl-1,4-diazepan-1-yl]-4-methyl-3,4,6,10b-tetrahydro-1H-pyrazino[2,1-a]isoindol-2-yl]quinoline-8-carbonitrile] | 16.1 |
| C[C@@H]1CN(c2ccc(C#N)c3ncccc23)C[C@@H]2c3ccc(N4CCNCC(C)(O)C4)cc3CN12 (stereo partly drawn) [Example 55, 5-[(4R,10S)-8-(6-hydroxy-6-methyl-1,4-diazepan-1-yl)-4-methyl-3,4,6,10b-tetrahydro-1H-pyrazino[2,1-a]isoindol-2-yl]quinoline-8-carbonitrile] | 6.5 |
| C[C@@H]1CN(c2ccc(C#N)n3nccc23)C[C@@H]2c3ccc(N4C[C@@H](N)[C@H](O)C4)cc3CN12 [Example 110, 4-[(4R,10bS)-8-[(3R,4R)-3-amino-4-hydroxy-pyrrolidin-1-yl]-4-methyl-3,4,6,10b-tetrahydro-1H-pyrazino[2,1-a]isoindol-2-yl]pyrazolo[1,5-a]pyridine-7-carbonitrile] | 19 |
| C[C@@H]1CN(c2ccc(C#N)c3ncccc23)C[C@@H]2c3ccc(N4C[C@@H](N)[C@](C)(O)C4)cc3CN12 [Example 45A, 5-[(4R,10bS)-8-[(3R,4R)-4-amino-3-hydroxy-3-methyl-pyrrolidin-1-yl]-4-methyl-3,4,6,10b-tetrahydro-1H-pyrazino[2,1-a]isoindol-2-yl]quinoline-8-carbonitrile] | 3.5 |
| CO[C@H]1CN(c2ccc3c(c2)CN2[C@H](C)CN(c4ccc(C#N)c5ncccc45)C[C@H]32)C[C@@H]1N (relative stereo) [Example 16, 5-[(4R,10bS)-8-[trans-3-amino-4-methoxy-pyrrolidin-1-yl]-4-methyl-3,4,6,10b-tetrahydro-1H-pyrazino[2,1-a]isoindol-2-yl]quinoline-8-carbonitrile] | 6.9 |
| C[C@@H]1CN(c2ccc(C#N)n3nccc23)C[C@@H]2c3ccc(N4CCNCC4)cc3CN12 [Example 5, 4-[(4R,10bS)-4-methyl-8-piperazin-1-yl-3,4,6,10b-tetrahydro-1H-pyrazino[2,1-a]isoindol-2-yl]pyrazolo[1,5-a]pyridine-7-carbonitrile] | 4.9 |
| C[C@@H]1CN(c2ccc(C#N)c3ncccc23)CC2c3ccc(N4C[C@H](N)[C@@H](O)C4)cc3CN21 (relative stereo) [Example 21, 5-[(4R,10bS)-8-[trans-3-amino-4-hydroxy-pyrrolidin-1-yl]-4-methyl-3,4,6,10b-tetrahydro-1H-pyrazino[2,1-a]isoindol-2-yl]quinoline-8-carbonitrile] | 5.8 |
| C[C@@H]1CN(c2ccc(C#N)c3ncccc23)C[C@@H]2c3ccc(N[C@H]4CNC[C@@H]4F)cc3CN12 [Example 31, 5-[(4R,10bS)-8-[[(3S,4S)-4-fluoropyrrolidin-3-yl]amino]-4-methyl-3,4,6,10b-tetrahydro-1H-pyrazino[2,1-a]isoindol-2-yl]quinoline-8-carbonitrile] | 4.1 |
| C[C@@H]1CN(c2ccc(C#N)c3ncccc23)C[C@@H]2c3ccc(N4C[C@@H](N)[C@@H](F)C4)cc3CN12 [Example 47, 5-[(4R,10bS)-8-[(3R,4S)-3-amino-4-fluoro-pyrrolidin-1-yl]-4-methyl-3,4,6,10b-tetrahydro-1H-pyrazino[2,1-a]isoindol-2-yl]quinoline-8-carbonitrile] | 4.8 |

Stronger by IC50, values ahead:

| IC50 [nM] | SMILES |
| --- | --- |
| < 3.2 | C[C@@H]1CN(c2ccc(C#N)c3ncccc23)C[C@@H]2c3ccc(N4CCNC[C@@H]4CO)cc3CN12 [Example 10, 5-[(4R,10bS)-8-[(2R)-2-(hydroxymethyl)piperazin-1-yl]-4-methyl-3,4,6,10b-tetrahydro-1H-pyrazino[2,1-a]isoindol-2-yl]quinoline-8-carbonitrile] |
| < 3.2 | C[C@@H]1CN(c2ccc(C#N)c3ncccc23)C[C@@H]2c3ccc(C4CCNCC4)cc3CN12 [Example 9, 5-[(4R,10bS)-4-methyl-8-(4-piperidyl)-3,4,6,10b-tetrahydro-1H-pyrazino[2,1-a]isoindol-2-yl]quinoline-8-carbonitrile] |
| < 3.2 | C[C@@H]1CN(c2ccc(C#N)c3ncccc23)C[C@@H]2c3ccc(OCCN(C)C)cc3CN12 [Example 25, 5-[(4R,10bS)-8-[2-(dimethylamino)ethoxy]-4-methyl-3,4,6,10b-tetrahydro-1H-pyrazino[2,1-a]isoindol-2-yl]quinoline-8-carbonitrile] |
| < 3.2 | C[C@@H]1CN(c2ccc(C#N)c3ncccc23)C[C@@H]2c3ccc(N[C@H]4CNC[C@H]4F)cc3CN12 [Example 30, 5-[(4R,10bS)-8-[[(3S,4R)-4-fluoropyrrolidin-3-yl]amino]-4-methyl-3,4,6,10b-tetrahydro-1H-pyrazino[2,1-a]isoindol-2-yl]quinoline-8-carbonitrile] |
| 1.7 | C[C@@H]1CN(c2ccc(C#N)c3ncccc23)C[C@@H]2c3ccc(N4CC5(CN(C)C5)C4)cc3CN12 [Example 38, 5-[(4R,10bS)-4-methyl-8-(6-methyl-2,6-diazaspiro[3.3]heptan-2-yl)-3,4,6,10b-tetrahydro-1H-pyrazino[2,1-a]isoindol-2-yl]quinoline-8-carbonitrile] |
| < 3.2 | C[C@@H]1CN(c2ccc(C#N)c3ncccc23)C[C@@H]2c3ccc(N4CC5(CCN5)C4)cc3CN12 [Example 37, 5-[(4R,10bS)-8-(1,6-diazaspiro[3.3]heptan-6-yl)-4-methyl-3,4,6,10b-tetrahydro-1H-pyrazino[2,1-a]isoindol-2-yl]quinoline-8-carbonitrile] |
